PMC2607020, “An Unusual Helix Turn Helix Motif in the Catalytic Core of HIV-1 Integrase Binds Viral DNA and LEDGF” (PLoS ONE, 2009)
“Also recorded” adds a separate entry of the source. Where two headings read alike, the source gives them in different places.

What was measured:
LEDGF-IBD (wt IBD) = target: T1, LEDGF-IBD (wt IBD) (Homo sapiens, UniProt O75475); experiment: Fluorescence anisotropy titration of fluorescein-grafted HTHi by wt LEDGF-IBD; format: binding; details: fluorescein-grafted HTHi 50 nM titrated by wt LEDGF-IBD; pH 6.0; 5°C
T1 construct: The wt IBD is the fragment 347–471 of LEDGF (GST removed); GST (cleaved yes)
T1 sequence (O75475 347-471): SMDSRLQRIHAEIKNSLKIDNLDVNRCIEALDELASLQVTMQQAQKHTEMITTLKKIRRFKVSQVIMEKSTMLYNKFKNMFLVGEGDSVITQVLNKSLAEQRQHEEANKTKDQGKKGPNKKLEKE
From the text: (§1) Like the whole protein, these contain no Trp.

[1] = tested on: Asp366Asn-IBD variant of LEDGF; details: fluorescence anisotropy; fluorescein-labeled HTHi 50 nM; pH 6.0; 5°C
Method: The wt IBD is the fragment 347–471 of LEDGF (GST removed) [33], [51], [52]. The mutant IBD is the Asp366Asn version of the former. Like the whole protein, these contain no Trp. […] The proteins were used in the “reaction buffer” containing 20 mM HEPES (pH 6.8), 10 mM MgCl2 and 10 mM DTT.
Intrinsic fluorescence quantum yield and fluorescence anisotropy studies were carried out with a Jobin-Yvon Fluoromax II instrument (HORIBA Jobin-Yvon, France) equipped with an ozone-free 150 W xenon lamp. The samples (800 µl) were placed at 5°C in thermally jacketed 1 cm×0.5 cm quartz cells. At least ten measurements for each titration point were recorded with an integration time of 5 sec.
The fluorescence anisotropy of the fluorescein-conjugated version of HTHi (50 nM) titrated by wt and mutated IBD in the “assay buffer” was used to evaluate the Kd of the LEDGF-HTHi complex.

viral DNA = experiment: Specific binding of peptide to viral DNA (general statement); set-up: species or system HIV-1; details: Discussion
LTR34f5′ [2] = details: LTR34f5′ vs LTR34fm; ref [43]; cited from earlier work
From the text: (§2) In a previous work we pointed out the importance of the conformational entropy in the binding of the α4 helix to the viral DNA. In order to reduce this effect, we had designed an analog of the α4 peptide that had its secondary structure stabilized by helicogenic mutations (Gly149Ala, Ile161Leu, Ile162Leu and Gly163Ala). The resulting peptide, K156, was a good mimic of the α4 helix in the protein context and was better organized for binding than peptide α4.

LTR34fm [3] = details: ref [43], cited from earlier work
From the text: as §2

[4] = target: CRE (cAMP response element); details: negative control sequence CRE; ref [43]; read-out: Kd (non-specific binding); cited from earlier work
From the text: The behavior of peptide HTHi is similar to that of peptide K156.

wt IN [5] = experiment: Quenching of the intrinsic fluorescence of wt IN by peptide; format: binding, HIV-1; details: wt IN 100 nM monomer; Trp fluorescence quenching, excitation 295 nm; 20 mM HEPES pH 6.8, 10 mM MgCl2, 10 mM DTT; 5°C
Method: as §1
The intrinsic fluorescence of wt IN was measured at 100 nM monomer concentration, in the “reaction buffer” (see above). The Trp residues were excited at 295 nm and emission was recorded between 305 and 450 nm, with 2 nm and 5 nm excitation and emission slit widths, respectively. A maximal emission was obtained at 337 nm. Quenching of the fluorescence of IN following the addition of HTHi or of peptide α4 (devoid of Trp) was expressed as 1-F/F0, where F0 is the fluorescence of the enzyme in the absence of peptide.

[6] = Circular dichroism of free peptide (secondary structure, oligomerisation); format: physicochemical
From the text: They were made according to the Fmoc procedure, as already reported for peptide α4, for its “stabilized” analogue i.e., peptide K156, and for the peptide INH5, derived from the α5 helix, [43]. Peptide α4 reproduces the α4 helix sequence of IN; peptide K156 is a variant of the α4 peptide resulting from the replacement of weakly helicogenic residues by more helicogenic ones in several biologically irrelevant positions; peptide INH5 contains both the α5 helix and the turn connecting the α5 helix to the α4 helix. The peptides HTHi and wt HTHi reproduce the sequences of the HTHi motifs in the IN-Phe185Lys variant and in wt IN respectively. A version of the HTHi peptide with a carboxyfluorescein at the N-terminus has also been prepared. Tyr or Trp aromatic residues, when absent in the native sequences, were purposely added in order to enable peptide quantification by UV absorption spectra. Peptide concentrations were determined using a molar absorption coefficient at 280 nm equal to 1 280 M^−1 cm^−1 for the tyrosine-containing peptides α4, INH5 and HTHi and 5600 M^−1 cm^−1 for the tryptophane-containing peptides K156 and […].
CD spectra were recorded on a Jobin-Yvon CD6 dichrograph (HORIBA Jobin-Yvon, France). Peptide concentrations varied from 5 to 25 µM in the “assay buffer”, containing 40 mM sodium phosphate, 0.5 mM EDTA, pH 6.0. The samples, incubated 10 min at the chosen temperature to allow the solutions to reach their equilibrium state, were placed in thermally jacketed cells with a 1 mm path length. The spectra, recorded in 1 nm steps, were averaged over ten scans and corrected for the base line, then presented as differential molar absorptivities per residue, Δε (M^−1 cm^−1), for peptides, and as difference spectra (complex minus DNA), for peptide-DNA complexes. For the HTHi-LTR interaction, aliquots of peptide were added to LTR34 (10 µM) and the control spectrum of unliganded LTR was subtracted from that of the complex. Recall that in a simple random coil – α helix equilibrium, the α-helix content of peptides could be approximated by the relation: Pα = −[Δε222×10] (Pα: percentage of α helix; Δε222: differential molar absorptivity per residue at 222 nm).

wt IN [7] = details: intrinsic fluorescence of IN; similar conditions; ref [30]; cited from earlier work
Method: In a previous study, based on the intrinsic fluorescence properties of IN conferred by its six Trp residues, we have shown the ability of peptide INH5 (Table 1a) to interact with IN with a concentration midpoint (C0.5) of 168 nM [30].

IN = details: ref [30]; cited from earlier work
Method: In a previous study, based on the intrinsic fluorescence properties of IN conferred by its six Trp residues, we have shown the ability of peptide INH5 (Table 1a) to interact with IN with a concentration midpoint (C0.5) of 168 nM [30]. […] There are examples in the literature showing that the so-called stabilizing helix of HTH motifs is involved in the protein dimerization. This is the case of topoisomerase II, in which the binding site to DNA is fashioned from the interaction of two HTH motifs. The implication of the α5 helix in the enzyme structure and activity has been highlighted in our previous report showing that peptide INH ...

LTR34fm [8] = experiment: Fluorescence anisotropy titration of LTR34fm by peptide; format: binding, HIV-1; details: LTR34fm 20 nM, curve fitting, ±10% uncertainty, 40 mM sodium phosphate, 0.5 mM EDTA, pH 6.0, 5°C
From the text: (§3) The oligonucleotides (Table 1b) were purchased from Cybergene ESGS (France) and Eurogentec (Belgium). The choice of monomolecular hairpin-forming oligonucleotides, rather than bimolecular duplex-forming ones, was motivated by the need for stability under the low concentrations inherent to the fluorescence anisotropy experiments. The fluorescein reporter group is grafted either to the central T nucleotide (LTR34fm) or to the 5′ extremity (LTR34f5′ and CRE). The CRE (cAMP responsive element) sequence was used as negative control. The version of LTR34 without fluorescein was used in CD studies.
(§4) Fluorescence anisotropy titration, [75]. Fluorescein-labeled oligonucleotides were used at 20 nM in the “assay buffer” (see Table 1b and above). With fluorescein as fluorophore, excitation and emission were at 488 nm and 516 nm, with 4 nm and 5 nm slits, respectively. Peptides were added to DNA as successive aliquots. For each anisotropy measurement, the parallel [drawing 1] and the perpendicular [drawing 2] intensities of the background solution (i.e., buffer and protein contributions) were subtracted from those of the sample.

[9] = target: CRE (cAMP response element); experiment: Fluorescence anisotropy titration of CRE (negative control sequence) by peptide; details: CRE 20 nM, curve fitting, ±10% uncertainty, 40 mM sodium phosphate, 0.5 mM EDTA, pH 6.0, 5°C, read-out: Kd (non-specific binding)
From the text: as §3, §4

LTR34f5′ [10] = experiment: Fluorescence anisotropy titration of LTR34f5′ by peptide; format: binding, HIV-1
From the text: as §3, §4

LTR34 = experiment: Circular dichroism of peptide-DNA complex (difference spectrum); format: binding, HIV-1; details: HTHi 6 µM + LTR34 10 µM, 40 mM sodium phosphate, 0.5 mM EDTA, pH 6.0
From the text: as §3
CD spectra were recorded on a Jobin-Yvon CD6 dichrograph (HORIBA Jobin-Yvon, France). Peptide concentrations varied from 5 to 25 µM in the “assay buffer”, containing 40 mM sodium phosphate, 0.5 mM EDTA, pH 6.0. The samples, incubated 10 min at the chosen temperature to allow the solutions to reach their equilibrium state, were placed in thermally jacketed cells with a 1 mm path length. The spectra, recorded in 1 nm steps, were averaged over ten scans and corrected for the base line, then presented as differential molar absorptivities per residue, Δε (M^−1 cm^−1), for peptides, and as difference spectra (complex minus DNA), for peptide-DNA complexes. […]

With `CC[C@H](C)[C@H](NC(=O)[C@H](Cc1ccccc1)NC(=O)[C@@H](NC(=O)[C@H](C)NC(=O)[C@H](CCSC)NC(=O)[C@H](CCC(N)=O)NC(=O)[C@@H](NC(=O)[C@H](C)NC(=O)[C@@H](NC(=O)[C@H](CCCCN)NC(=O)[C@H](CC(C)C)NC(=O)[C@H](Cc1c[nH]cn1)NC(=O)[C@H](CCC(=O)O)NC(=O)[C@H](C)NC(=O)[C@H](CCC(N)=O)NC(=O)[C@H](CC(=O)O)NC(=O)[C@H](CCCNC(=N)N)NC(=O)[C@@H](NC(=O)[C@H](CCC(N)=O)NC(=O)CNC(=O)[C@@H](NC(=O)[C@@H](NC(=O)[C@H](CCCCN)NC(=O)[C@H](CCCCN)NC(=O)[C@H](CC(C)C)NC(=O)[C@H](CCC(=O)O)NC(=O)[C@H](CCCCN)NC(=O)[C@H](CC(N)=O)NC(=O)[C@H](CCSC)NC(=O)[C@H](CO)NC(=O)[C@H](CCC(=O)O)NC(=O)[C@@H](NC(=O)[C@@H](NC(=O)CNC(=O)[C@H](Cc1ccc(O)cc1)NC(=O)c1ccc2c(c1)C(=O)OC21c2ccc(O)cc2Oc2cc(O)ccc21)C(C)C)[C@@H](C)CC)[C@@H](C)CC)[C@@H](C)CC)C(C)C)[C@@H](C)O)C(C)C)C(C)C)C(=O)N[C@@H](Cc1c[nH]cn1)C(=O)N[C@@H](CC(N)=O)C(=O)N[C@@H](CCCCN)C(=O)N[C@@H](CCCCN)C(=O)N[C@@H](C)C(=O)O` [fluorescein-grafted HTHi peptide] the Hill number (LEDGF-IBD (wt IBD)) was 11±3 and the “binding to Asp366Asn-IBD vs wt IBD” value [1] was “only the wt IBD binds HTHi”.
For SQA 149 KLEEMNK156ELKKLLAQVRAQ168 W, the “affinity for viral DNA compared with HTHi” value (viral DNA; K156 vs HTHi) is given as “manifests a greater affinity for viral DNA than peptide HTHi”, the “effect of fluorescein at the 5′ extremity on binding modes” value (LTR34f5′ [2]) is given as “suppressed the high affinity binding mode of K156 but preserved the low affinity mode” and the Kd (LTR34fm [3]; attachment site on the six outermost bases of viral DNA, read-out: Kd1 (high affinity site)) is given as 0.0021 µM. The Kd (LTR34fm [3]; non-specific binding, read-out: Kd2 (low affinity site)) was 54 µM and the Kd [4] was 16 µM.
With SQG149VVESMNK156ELKKIIGQVRY [α4] the “DNA binding (in words)” value (viral DNA; isolated peptide, no value) was “very poor DNA binder; also recorded: completely unable to specifically bind the viral DNA”, the “midpoint of titration curve (C0.5)” value (wt IN [5]) was 53 ± 5 nM and the “conformation of isolated peptide” value ([6]; stated in Discussion) was “mostly displays random conformation”.
For “DQ 168 AEHLKTAVQMAVFIHNY 185KA [INH5, peptide containing both the α5 helix and the turn connecting the α5 helix to the α4 helix]”, the “concentration midpoint (C0.5)” value (wt IN [7]) is given as 168 nM and the “effect on IN” value (IN) is given as “caused the dissociation of the tetramers and dimers of IN; also recorded: inhibits IN by dissociating the IN dimers and tetramers”.
With “SQG149VIESMNK156ELKKIIGQVRDQ 168 AEHLKTAVQMAVWIHNF185K [wt HTHi]” the “structure compared with that of the mutant bi-helix” value ([6]; experiments not shown, method not stated) was “the structure of the wt bi-helix was similar to that of the mutant”.
In the case of “YG149VIESMNK156ELKKIIGQVRDQ 168 AEHLKTAVQMAVFIHNK 185KA [HTHi]”, the Kd (LTR34fm [8]; read-out: Kd1 (high affinity site)) is reported as 50 nM, the Kd (LTR34fm [8]; read-out: Kd2 (low affinity, non-specific site)) is reported as 1900 nM and the Kd [9] is reported as 6.6 µM. The Kd (LTR34f5′ [10]; LTR34f5′ 20 nM, monophasic, fluorescence anisotropy, curve fitting, ±10% uncertainty, 40 mM sodium phosphate, 0.5 mM EDTA, pH 6.0, 5°C) was 2900 nM, the “effect of fluorescein at the 5′ extremity on high affinity binding” value (LTR34f5′ [10]; LTR34f5′ vs LTR34fm) was “The high affinity is abolished” and the “midpoint of titration curve (C0.5)” value (wt IN [5]) was 104 ± 8 nM. For the same compound, the “helix content compared with component peptides α4 and INH5” value ([6]; CD, spectra of α4 from ref [43] and of INH5 from ref [30]) was “helix content of HTHi is greater than that of peptides α4 [43] and INH5 [30]”, the “propensity to form oligomers in solution” value ([6]; high peptide concentration, CD, pH 6.0) was “propensity of HTHi to form oligomers in solution at high concentration” and the helical content ([6]; peptide 6 µM, 40 mM sodium phosphate, 0.5 mM EDTA, pH 6.0, 1 mm path length) was 10–15%. For the same compound, the “helical content (in words)” value ([6]; peptide 25 µM, 40 mM sodium phosphate, 0.5 mM EDTA, pH 6.0) was “weak amount of helix” and the “change of helical content on binding LTR34” value (LTR34) was “practically doubles its helical content when binding to LTR34”.
